# Key:
# [1] = target: T1, G12C K-Ras4B (1-169) (Homo sapiens, UniProt P01116, G12C); assay: Binding to KRAS G12C mutant, compound binding rate by LC-MS; details: final compound concentration 2 μM, 1 μM protein, 2 hours at 25° C.
# T1 construct: G12C K-Ras4B (1-169) protein, which was a KRAS G12C mutant; His tag (N, cleaved yes); made in house; host or cells: E. coli BL21 (DE3)
# Excerpt: K-Ras4B (1-169) protein was expressed in E. coli strain BL21 (DE3) by synthesizing a nucleotide sequence encoding the amino acid sequence represented by GenPept ID NP_004976 as a sequence optimized for E. coli by use of GeneArt Technology (Life Technologies Corp.) such that the protein was N-terminally His-tagged and fused with a TEV protease recognition sequence (ENLYFQG). The expressed His-tagged K-Ras4B (1-169) was purified through a Ni column, then cleaved at its tag with N-terminally His-tagged TEV protease, and passed through a Ni column again to recover a flow-through fraction, which was further purified by anion-exchange chromatography to obtain the protein. G12C K-Ras4B (1-169) protein, which was a KRAS G12C mutant, was obtained in the same way as in the K-Ras4B(1-169) protein except that glycine at position 12 of the amino acid sequence represented by GenPept ID NP_004976 was mutated to cysteine.
# The K-Ras4B (1-169) protein and the G12C K-Ras4B (1-169) protein were mixed and diluted with a buffer solution (1×TBS and 0.1 mM TCEP) to prepare a protein solution containing 1 μM each of the proteins. Each test compound was dissolved at 10 mM in DMSO and further diluted 10-fold with DMSO to make a 1 mM solution. Then, the solution was diluted 5-fold with DMSO to make a 200 μM solution. The 200 μM solution was further diluted 5-fold to make a […] solution. 1 μL of the 40 μM test compound was added to 19 μL of the 1 μM protein solution such that the final compound concentration was 2 μM. The mixture was stored for 2 hours in an incubator of 25° C., and the reaction was terminated by the addition of 80 μL of a 1×TBS solution containing 0.2% formic acid, followed by LC-MS measurement.
# The LC-MS measurement was performed by using Xevo G2-S Q-Tof manufactured by Waters Corp., performing reverse-phase chromatography with a desalting column, and obtaining mass spectra of positive ions by electrospray. For the mass spectra, spectra of polyvalent ions were collectively converted to molecular weights by the MaxEnt technique using OpenLynx software, and then, a compound binding rate was obtained from the ratio of […].
# The binding rates of test compounds having a final compound concentration of 2 μM for G12C K-Ras4B (1-169) are shown in the table below. The binding rate for G12C K-Ras4B (1-169) is rated “A” for 80% or more, “B” for 60% or more and less than 80%, “C” for 40% or more and less than 60%, “D” for 20% or more and less than 40%, and “E” for less than 20%.
# [2] = target: T2, KRAS G12C mutant (Homo sapiens, UniProt P01116, G12C); assay: Inhibition of SOS1-mediated nucleotide (GDP-GTP) exchange reaction of KRAS G12C mutant, BODIPY FL GDP fluorescence; format: biochemical; details: preincubated 25° C. 4 hours with 25 nM KRAS G12C bound with BODIPY FL GDP; SOS1 100 nM, GppNHp 1 μM, 30 minutes
# T2 construct: 50 μM G12C K-Ras4B (1-169) protein and 1 mM BODIPY® FL GDP; His tag (N, cleaved yes); made in house; host or cells: E. coli BL21 (DE3)
# Excerpt: SOS1 protein was expressed in E. coli strain BL21 (DE3) by synthesizing a nucleotide sequence encoding the amino acid sequence represented by GenPept ID NP_005624 as a sequence optimized for E. coli by use of GeneArt Technology (Life Technologies Corp.) such that the protein was N-terminally His-tagged and fused with a TEV protease recognition sequence (ENLYFQG). The expressed His-tagged SOS1 (564-1049) was purified through a Ni column, then cleaved at its tag with N-terminally His-tagged TEV protease, and passed through a Ni column again to recover a flow-through fraction to obtain the protein.
# Each compound was studied for its inhibitory effect on the exchange reaction of GDP into GppNHp in BODIPY® FL bound with the KRAS G12C mutant by fluorescence measurement using the G12C K-Ras4B (1-169) protein and the SOS1 protein.
# For the preparation of the KRAS G12C mutant bound with BODIPY® FL GDP, first, 50 μM G12C K-Ras4B (1-169) protein and 1 mM BODIPY® FL GDP (Invitrogen Corp., G22360) were incubated for 1 hour in a buffer solution (20 mM Tris-HCl (pH 7.5), 50 mM NaCl, and 1 mM DTT) in ice in the presence of 2.5 mM EDTA. Then, MgCl2 was added thereto at a final concentration of 10 mM, then the mixture was incubated at room temperature for 30 minutes, and then, the protein was passed through a NAP-5 column for removal of free nucleotides and used for compound evaluation.
# For the measurement of the inhibitory activity of compounds against nucleotide exchange reaction, first, the compound of the present invention was serially diluted with DMSO. Subsequently, the serially diluted solution of the compound of the present invention in DMSO (final concentration of DMSO: 5%) and the KRAS G12C mutant (25 nM) bound with BODIPY® FL GDP were added into a reaction buffer solution (20 mM Tris-HCl (pH 7.5), 100 mM NaCl, 1 mM MgCl2, 2 mM DTT, and 0.1% Tween 20), and the mixture was preincubated at 25° C. for 4 hours. Then, Son of Sevenless Homolog 1 (SOS1, amino acid region: 564-1049) and GppNHp (GMPPNP, Jena Bioscience GmbH, NU-401-50) were added thereto at final concentrations of 100 nM and 1 μM, respectively, and the mixture was reacted for 30 minutes. The change in fluorescence intensity of BODIPY® FL (excitation wavelength: 485 nm, fluorescence wavelength: 520 nm) between immediately after the start of reaction and after 30 minutes from the start of reaction was standardized, and then, the compound concentration at which 50% inhibition was achieved was calculated as IC50 (nM) when the signal value for only DMSO was defined as 0% inhibition and the signal value for no addition of GppNHp was defined as 100% inhibition.
Compound,binding rate for G12C K-Ras4B (1-169) [1],IC50 [2]
"C=CC(=O)N1CC(NC(=O)c2cnc(CNc3cc(C(C)(C)C)cc(C)c3O)n2C)C1 [Example 74, N-(1-Acryloylazetidin-3-yl)-2-(((5-(tert-butyl)-2-hydroxy-3-methylphenyl)amino)methyl)-1-methyl-1H-imidazole-5-carboxamide]",E (less than 20%),701 nM
"C=CC(=O)N1CC(N(C)C(=O)c2sc(CNc3cc(C(C)(C)C)c(Cl)cc3O)nc2C)C1 [Example 35, N-(1-Acryloylazetidin-3-yl)-2-(((5-(tert-butyl)-4-chloro-2-hydroxyphenyl)amino)methyl)-N,4-dimethylthiazole-5-carboxamide]",E (less than 20%),463 nM
"C=CC(=O)N1CC(NC(=O)c2cc(CNc3cc(C(C)(C)C)c(Cl)cc3O)ccn2)C1 [Example 16, N-(1-Acryloylazetidin-3-yl)-4-(((5-(tert-butyl)-4-chloro-2-hydroxyphenyl)amino)methyl)picolinamide]",A (80% or more),3010 nM
"CN(C)C/C=C/C(=O)N1CC(NC(=O)c2cnc(CNc3cc(C(C)(C)C)c(Cl)cc3O)s2)C1 [Example 86, (E)-2-(((5-(tert-Butyl)-4-chloro-2-hydroxyphenyl)amino)methyl)-N-(1-(4-(dimethylamino)but-2-enoyl)azetidin-3-yl)thiazole-5-carboxamide]",B (60% or more and less than 80%),701 nM
"C=CC(=O)N1CC(NC(=O)c2c(C)nc(C(O)c3cc(C(C)(C)C)c(Cl)cc3O)n2C)C1 (centres unmarked) [Example 91, N-(1-Acryloylazetidin-3-yl)-2-((5-(tert-butyl)-4-chloro-2-hydroxyphenyl) (hydroxy)methyl)-1,4-dimethyl-1H-imidazole-5-carboxamide]",D (20% or more and less than 40%),128 nM
"C=CC(=O)N1CC(NC(=O)c2c(I)nc(CNc3cc(C(C)(C)C)c(Cl)cc3O)n2C)C1 [Example 27, N-(1-Acryloylazetidin-3-yl)-2-(((5-(tert-butyl)-4-chloro-2-hydroxyphenyl)amino)methyl)-4-iodo-1-methyl-1H-imidazole-5-carboxamide]",A (80% or more),16 nM
"C=CC(=O)N1CC(NC(=O)c2c(C)nc(Cc3cc(C(C)(C)C)c(F)cc3O)n2C)C1 [Example 94, N-(1-Acryloylazetidin-3-yl)-2-(5-(tert-butyl)-4-fluoro-2-hydroxybenzyl)-1,4-dimethyl-1H-imidazole-5-carboxamide]",C (40% or more and less than 60%),170 nM
"C=CC(=O)N1CC(NC(=O)c2cnc(CNc3cc(C(F)(F)F)c(Cl)cc3O)n2C)C1 [Example 54, N-(1-Acryloylazetidin-3-yl)-2-(((4-chloro-2-hydroxy-5-(trifluoromethyl)phenyl)amino)methyl)-1-methyl-1H-imidazole-5-carboxamide]",C (40% or more and less than 60%),420 nM
"C=CC(=O)N1CC(NC(=O)c2nc(CNc3cc(C(C)(C)C)c(Cl)cc3O)co2)C1 [Example 14, N-(1-Acryloylazetidin-3-yl)-4-(((5-(tert-butyl)-4-chloro-2-hydroxyphenyl)amino)methyl)oxazole-2-carboxamide]",A (80% or more),420 nM
"C=CC(=O)N1CC(NC(=O)c2cc(CNc3cc(C(C)(C)C)c(Cl)cc3O)ccc2F)C1 [Example 23, N-(1-Acryloylazetidin-3-yl)-5-(((5-(tert-butyl)-4-chloro-2-hydroxyphenyl)amino)methyl)-2-fluorobenzamide]",C (40% or more and less than 60%),1000 nM
"C=CC(=O)N1CC(NC(=O)c2oc(CNc3cc(C(C)(C)C)c(Cl)cc3O)cc2C)C1 [Example 21, N-(1-Acryloylazetidin-3-yl)-5-(((5-(tert-butyl)-4-chloro-2-hydroxyphenyl)amino)methyl)-3-methylfuran-2-carboxamide]",B (60% or more and less than 80%),808 nM
"C=CC(=O)N1CC(NC(=O)c2ccc(CNc3cc(C4CCC4)c(Cl)cc3O)o2)C1 [Example 53, N-(1-Acryloylazetidin-3-yl)-5-(((4-chloro-5-cyclobutyl-2-hydroxyphenyl)amino)methyl)furan-2-carboxamide]",E (less than 20%),5970 nM
"C=CC(=O)N1CC(NC(=O)c2ccc(CNc3cc(C(C)(C)C)c(Br)cc3O)o2)C1 [Example 65, N-(1-Acryloylazetidin-3-yl)-5-(((4-bromo-5-(tert-butyl)-2-hydroxyphenyl)amino)methyl)furan-2-carboxamide]",A (80% or more),353 nM
"C=CC(=O)N1CC(NC(=O)c2cnc(CCc3cc(C(C)(C)C)c(Cl)cc3O)n2C)C1 [Example 90, N-(1-Acryloylazetidin-3-yl)-2-(5-(tert-butyl)-4-chloro-2-hydroxyphenethyl)-1-methyl-1H-imidazole-5-carboxamide]",D (20% or more and less than 40%),549 nM
"C=CC(=O)N1CC(NC(=O)c2cnc(CNc3cc(C4(C)CC4(F)F)c(Cl)cc3O)n2C)C1 (centres unmarked) [Example 63, N-(1-Acryloylazetidin-3-yl)-2-(((4-chloro-5-(2,2-difluoro-1-methylcyclopropyl)-2-hydroxyphenyl)amino)methyl)-1-methyl-1H-imidazole-5-carboxamide]",A (80% or more),37 nM
"C=CC(=O)N1CC(NC(=O)c2cccc(CNc3cc(C(C)(C)C)c(Cl)cc3O)c2)C1 [Example 2, N-(1-Acryloylazetidin-3-yl)-3-(((5-(tert-butyl)-4-chloro-2-hydroxyphenyl)amino)methyl)benzamide]",B (60% or more and less than 80%),815 nM

# From patent publication US12479834B2, “Phenol compound or salt thereof” (TAIHO PHARMACEUTICAL CO., LTD., priority 2019, dated 2025)
